Here are results for three molecules from patent publication US20160289186A1, “FLUOROMETHYL-SUBSTITUTED PYRROLE CA[…]” (Grunenthal GmbH, priority 2013, published 2016).

For this test, the target named is T1, Human CaV2.2 channels (Homo sapiens, UniProt Q00975).
T1 construct: expressed in transfected cells; host or cells: HEK293
T1 sequence (Q00975 whole entry): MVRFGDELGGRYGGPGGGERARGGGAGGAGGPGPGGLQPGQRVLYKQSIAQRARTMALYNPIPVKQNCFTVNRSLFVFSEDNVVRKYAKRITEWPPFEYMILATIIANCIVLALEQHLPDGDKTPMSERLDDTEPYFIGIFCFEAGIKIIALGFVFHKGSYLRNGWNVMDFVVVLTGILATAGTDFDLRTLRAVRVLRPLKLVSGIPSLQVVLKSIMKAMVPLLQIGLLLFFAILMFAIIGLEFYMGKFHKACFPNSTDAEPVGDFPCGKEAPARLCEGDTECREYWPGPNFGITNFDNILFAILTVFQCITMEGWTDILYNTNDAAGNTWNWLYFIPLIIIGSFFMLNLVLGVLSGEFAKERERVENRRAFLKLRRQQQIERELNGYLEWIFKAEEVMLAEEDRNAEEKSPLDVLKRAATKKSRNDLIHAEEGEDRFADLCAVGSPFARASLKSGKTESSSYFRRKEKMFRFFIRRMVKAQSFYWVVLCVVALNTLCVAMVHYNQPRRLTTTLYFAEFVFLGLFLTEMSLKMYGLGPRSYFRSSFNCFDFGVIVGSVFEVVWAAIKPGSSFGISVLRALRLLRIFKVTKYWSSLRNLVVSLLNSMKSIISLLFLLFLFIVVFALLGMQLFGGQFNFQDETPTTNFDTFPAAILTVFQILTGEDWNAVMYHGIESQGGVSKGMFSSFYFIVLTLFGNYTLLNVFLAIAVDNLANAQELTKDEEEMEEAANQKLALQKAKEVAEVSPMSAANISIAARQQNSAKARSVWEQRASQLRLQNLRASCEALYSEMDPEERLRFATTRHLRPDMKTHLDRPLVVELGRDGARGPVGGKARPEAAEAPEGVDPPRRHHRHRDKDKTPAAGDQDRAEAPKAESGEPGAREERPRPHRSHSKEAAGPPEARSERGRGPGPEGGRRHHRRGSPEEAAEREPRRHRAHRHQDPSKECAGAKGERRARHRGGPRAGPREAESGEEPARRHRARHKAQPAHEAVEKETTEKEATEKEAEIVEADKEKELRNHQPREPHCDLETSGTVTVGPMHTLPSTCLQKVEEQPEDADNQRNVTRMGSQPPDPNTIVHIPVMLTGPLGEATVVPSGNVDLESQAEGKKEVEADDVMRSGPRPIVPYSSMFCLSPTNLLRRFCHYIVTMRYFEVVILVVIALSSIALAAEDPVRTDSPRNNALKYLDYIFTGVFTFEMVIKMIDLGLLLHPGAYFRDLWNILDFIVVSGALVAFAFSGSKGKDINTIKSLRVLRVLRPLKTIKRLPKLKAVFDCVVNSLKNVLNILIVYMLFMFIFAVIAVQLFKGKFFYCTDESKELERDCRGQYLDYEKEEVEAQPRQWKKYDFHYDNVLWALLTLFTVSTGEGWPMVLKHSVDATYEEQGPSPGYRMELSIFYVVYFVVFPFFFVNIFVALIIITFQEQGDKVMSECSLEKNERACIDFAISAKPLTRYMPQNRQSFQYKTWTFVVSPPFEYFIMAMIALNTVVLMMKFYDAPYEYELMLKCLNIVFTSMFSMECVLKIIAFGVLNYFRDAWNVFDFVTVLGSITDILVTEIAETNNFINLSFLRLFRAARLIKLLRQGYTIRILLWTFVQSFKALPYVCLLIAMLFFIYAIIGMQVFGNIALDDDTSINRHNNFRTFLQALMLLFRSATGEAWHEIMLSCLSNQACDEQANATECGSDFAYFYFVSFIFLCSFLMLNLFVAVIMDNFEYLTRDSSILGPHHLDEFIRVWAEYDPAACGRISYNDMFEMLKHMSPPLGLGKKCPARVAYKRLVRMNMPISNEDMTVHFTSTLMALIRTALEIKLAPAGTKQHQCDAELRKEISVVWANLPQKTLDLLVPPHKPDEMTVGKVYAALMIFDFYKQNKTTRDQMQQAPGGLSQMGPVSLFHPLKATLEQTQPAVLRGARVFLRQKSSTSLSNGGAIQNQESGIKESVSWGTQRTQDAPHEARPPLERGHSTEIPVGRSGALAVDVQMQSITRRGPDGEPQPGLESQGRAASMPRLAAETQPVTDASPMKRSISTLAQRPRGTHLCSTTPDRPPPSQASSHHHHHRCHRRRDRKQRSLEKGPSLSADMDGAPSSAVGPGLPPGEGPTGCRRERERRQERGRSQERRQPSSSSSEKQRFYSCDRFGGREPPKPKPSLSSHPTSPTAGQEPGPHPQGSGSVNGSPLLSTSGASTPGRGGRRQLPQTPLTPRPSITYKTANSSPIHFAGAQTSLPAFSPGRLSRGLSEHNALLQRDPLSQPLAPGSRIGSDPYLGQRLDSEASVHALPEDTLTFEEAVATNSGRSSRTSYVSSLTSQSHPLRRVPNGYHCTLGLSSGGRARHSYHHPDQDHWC
T1 sequence (P54284 whole entry, further chain): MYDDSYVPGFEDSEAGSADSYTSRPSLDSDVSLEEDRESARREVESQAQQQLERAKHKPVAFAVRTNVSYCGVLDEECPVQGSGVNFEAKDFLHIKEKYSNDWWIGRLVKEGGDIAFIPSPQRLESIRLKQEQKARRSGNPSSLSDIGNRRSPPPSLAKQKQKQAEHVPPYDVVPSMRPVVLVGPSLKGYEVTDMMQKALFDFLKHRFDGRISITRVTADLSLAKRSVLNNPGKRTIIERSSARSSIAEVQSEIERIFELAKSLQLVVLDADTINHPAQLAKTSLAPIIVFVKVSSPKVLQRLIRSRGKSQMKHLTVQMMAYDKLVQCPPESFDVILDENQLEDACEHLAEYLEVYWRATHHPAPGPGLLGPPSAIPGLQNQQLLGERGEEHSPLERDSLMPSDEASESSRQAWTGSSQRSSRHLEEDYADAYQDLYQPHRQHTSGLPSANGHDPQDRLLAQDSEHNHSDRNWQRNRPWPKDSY
T1 sequence (P54289 25-1103, further chain): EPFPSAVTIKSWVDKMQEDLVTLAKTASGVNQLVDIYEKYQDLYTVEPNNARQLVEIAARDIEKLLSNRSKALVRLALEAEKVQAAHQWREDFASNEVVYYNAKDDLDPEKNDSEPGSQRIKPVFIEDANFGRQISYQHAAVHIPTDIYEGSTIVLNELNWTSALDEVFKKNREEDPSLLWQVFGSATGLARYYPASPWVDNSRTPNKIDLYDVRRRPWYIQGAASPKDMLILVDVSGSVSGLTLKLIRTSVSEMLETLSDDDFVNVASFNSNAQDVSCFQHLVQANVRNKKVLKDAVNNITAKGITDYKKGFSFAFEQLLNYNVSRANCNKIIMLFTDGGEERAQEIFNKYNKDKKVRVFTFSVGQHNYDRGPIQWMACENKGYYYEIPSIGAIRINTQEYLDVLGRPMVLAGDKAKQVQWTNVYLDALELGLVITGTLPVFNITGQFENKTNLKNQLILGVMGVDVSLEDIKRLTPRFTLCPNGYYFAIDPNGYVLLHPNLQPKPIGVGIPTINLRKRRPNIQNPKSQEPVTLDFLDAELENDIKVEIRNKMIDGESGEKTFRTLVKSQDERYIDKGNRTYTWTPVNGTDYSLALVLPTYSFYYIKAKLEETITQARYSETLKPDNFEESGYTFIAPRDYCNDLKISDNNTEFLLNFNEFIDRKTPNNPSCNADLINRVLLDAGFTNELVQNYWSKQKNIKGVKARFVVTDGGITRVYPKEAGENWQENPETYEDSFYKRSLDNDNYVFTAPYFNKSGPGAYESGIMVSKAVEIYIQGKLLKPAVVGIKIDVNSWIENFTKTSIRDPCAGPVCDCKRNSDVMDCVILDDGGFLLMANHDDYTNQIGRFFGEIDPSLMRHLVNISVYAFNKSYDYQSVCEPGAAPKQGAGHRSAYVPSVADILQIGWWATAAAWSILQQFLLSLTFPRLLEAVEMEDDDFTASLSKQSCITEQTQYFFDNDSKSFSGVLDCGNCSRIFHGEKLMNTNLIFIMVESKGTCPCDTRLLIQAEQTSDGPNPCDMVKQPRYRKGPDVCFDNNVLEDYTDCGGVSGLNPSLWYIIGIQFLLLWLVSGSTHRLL
Kind of test: Fluorescent (FLIPR) assay for CaV2.2 channels using potassium depolarization to induce channel opening. The format is cell-based. Conditions: 3 μM compound; 30 mM KCl assay buffer (inactivated channel state); HEK293 cells stably expressing human CaV2.2; read-out: Activity Category: %-Inhib (CaV2.2) @3 μM @30 mM KCl. The procedure, abridged: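 HEK293 cells stably co-expressing human CaV2.2 with α2δ and β subunits plus Kir2.3, Fluo-4 loaded; compounds preincubated 15 min at 25 °C in 1 mM or 30 mM KCl buffer (inactivated state), pH 7.4. Depolarized by KCl addition; baseline-normalized peak fluorescence (ex 480/em 535 nm) gave inhibition.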
`Cc1c(-c2ccc(Cl)cc2)c(C(=O)N(C)C(C)C(=O)NC(C)(C)C)n(C(C)C)c1C(F)(F)F` (stereo not drawn) [Example 133, N-[1-(tert-Butyl-carbamoyl)-ethyl]-3-(4-chlorophenyl)-1-isopropyl-N,4-dimethyl-5-(trifluoromethyl)-1H-pyrrole-2-carboxylic acid amide]: the inhibition at 3 µM is 40 to 75%.

As for `Cc1c(-c2ccc(Cl)cn2)c(C(=O)N(C)C2CCNCC2(C)C)n(C(C)C)c1C(F)(F)F` (stereo not drawn) [Example 134, 3-(5-Chloro-pyridin-2-yl)-N-(3,3-dimethyl-piperidin-4-yl)-1-isopropyl-N,4-dimethyl-5-(trifluoromethyl)-1H-pyrrole-2-carboxylic acid amide], the inhibition at 3 µM was in the range of 40 to 75%.

On to `Cc1c(-c2ccc(Cl)cc2)c(C(=O)N(C)C2CCNCC2(C)C)n(C(C)C)c1C(F)(F)F` (stereo not drawn) [Example 135, 3-(4-Chlorophenyl)-N-(3,3-dimethyl-piperidin-4-yl)-1-isopropyl-N,4-dimethyl-5-(trifluoromethyl)-1H-pyrrole-2-carboxylic acid amide], for which the inhibition at 3 µM lay in the range of 40 to 75%.
